In patent publication US20250041313A1, “COMBINATION THERAPY FOR TREATMENT OF CANCER” (CITY OF HOPE, priority 2023, published 2025):

Experiments:
SBC3 cells [1] = test: Imaris quantification of mitochondrial and nuclear areas/morphology; format: cell-based, human; conditions: SBC3
Experimental: (§1) Imaris 9.9.0 (Bitplane, AG), with Surfaces and Cells modules, was used to generate mitochondria morphology data from 2D images and 2D Z-stack subsets. Surfaces were used to evaluate individual mitochondria from cell monolayers and spheroids. Detection parameters were optimized for visible mitochondria and nuclei in each group with varying signal intensities. Roundness ratios were calculated from Surface generated Bounding Box 00 Length measurements. Object lengths less than 0.1 μm were excluded, and lengths greater than 1.26 μm were separately analyzed as clusters. Thresholds were uniformly applied to roundness ratios to categorize mitochondria morphology as elongated (<0.599), intermediate (≥0.600-0.649), or round/fragmentated (≥0.650). The percentage of cells from total number is based on a ratio. A perfectly round object has a ratio of 1.0. The Cells module was used to detect and quantify mitochondria and nucleus area from cell monolayers. Identical parameters were applied to all groups with cell boundary detection based on mitochondria signals. Imaris includes nuclei in cytoplasm measurements, so mitochondrial area is calculated by subtracting nucleus area from cell cytoplasm area. Abnormal nuclei were excluded (<100 μm^2, >750 μm^2).
MitoTracker Red and Hoechst 33342 were used to validate Teri and Leflu effects on intact mitochondrial morphology in SBC3 and SBC5 cells. M1 and MDIVI1 compounds were used as positive controls because they are promoters of mitochondrial fusion. Mitochondrial and nuclear areas were quantified by analyzing object surface area and intensity in Imaris 9.9.0.

SBC5 cells = test: as above; format: cell-based, human; conditions: SBC5, 10 μM
Experimental: as §1
Next, we performed the same analysis with SBC5 cells. […] Mitochondrial elongation in SBC3 cells treated with Teri and Leflu is visible and correlates with Imaris Surface results. […] Although mitochondrial areas of SBC5 cells were not affected by Teri and Leflu treatments, elongations of individual mitochondria were detected with each treatment (FIG. 2I). […] Therefore, it is important to investigate the effects of Teri and Leflu on mitochondrial morphology and cell survival in combination with chemotherapeutic drugs.

SCLC = conditions: relapsed / second-line SCLC patients; cited from earlier work
SBC3 cells [2] = test: CCK-8 cell viability/cytotoxicity assay, 72 h; format: cell-based, human; conditions: SBC3, CCK-8 72 h, fixed concentrations of Teri and Carbo; read-out: IC50, single treatment and combination treatment
Experimental: The expression levels of DRP1 and DHODH in SCLC lines were compared with non-malignant BEAS 2B cells. […] Previous studies have shown that Leflu and its active metabolite Teri regulate mitochondrial morphology (9,10,26). […] In vitro cytotoxicity effect of Teri and Leflu was tested in a panel of SCLC cell lines. Ten SCLC cell lines were treated with increasing concentrations of each drug for 72 h.
Isobologram and CI50 values were calculated using the Chou-Talalay method and IC50 to find synergism (FIG. 3B).

SBC3 xenograft = test: SBC3 mouse xenograft, Carbo/Leflu study; format: in vivo
Experimental: (§2) Athymic nude nu/nu mice were obtained from Charles River, Wilmington, MA, and were acclimated for a week before beginning the experiment. All animal experiments were carried out in accordance with a protocol approved by the Institutional Animal Care and Use Committee COH (IACUC #16004). For treatments, mice were divided into 4 groups with five mice per group and subcutaneously injected into one flank with 2×10^6 SBC3 or SBC5 cells suspensions in 100 μl of PBS. Treatment started on the 14th day when tumors became palpable. Two in vivo studies were done in this project. SBC3 and SBC 5 xenograft with i) vehicle control, ii) […] 50 mg/kg, iii) Leflu 7.5 mg/kg, and iv) […]/Leflu. SBC3 with i) vehicle control, ii) Lur 0.5 mg/kg, iii) Leflu 3.8 mg/kg, and iv) Lur/Leflu. Treatments were given to mice via i.p. twice a week for 6 weeks. Animals were examined daily for signs of tumor growth. Tumors were measured in two dimensions using calipers and body weights were recorded. Animals were photographed on days 1, 5, 10, 15, 20, 25, 30, 35, and 40 after treatment. Tumors were removed on day 40 and photographed. At the end of the study, the mice were euthanized by CO2 asphyxiation followed by cervical dislocation. The tumor weights were compared between groups using an unpaired Student's t-test. A portion of the tumor was fixed in 10% buffered formaldehyde solution and paraffin-embedded for immuno-staining. FFPE tumor sections were stained with pDRP Ser^616 antibody. Tumor sections were deparaffinized and rehydrated, followed by heat-mediated antigen retrieval (pH 6, Dako). After permeabilization and blocking, tumor sections were stained with pDRP1 Ser^616 antibody overnight, washed and incubated with Alexa 488 secondary antibody for one hour, mounted and observed on an LSM 880 with a 10×/0.45 NA objective (Carl Zeiss). Immunofluorescent confocal images were acquired for each treatment (magnification:100×). Mean immunofluorescence intensities were calculated with ZEN 2.3 Lite software.

SBC5 xenograft = test: SBC5 mouse xenograft, Carbo/Leflu study; format: in vivo; conditions: Carbo 50 mg/kg, Leflu 7.5 mg/kg, i.p. twice a week
Experimental: as §2, with “A portion of the tumor was fixed in 10% buffered formaldehyde solution and paraffin-embedded for immuno-staining. FFPE tumor sections were stained with pDRP Ser^616 antibody. Tumor sections were deparaffinized and rehydrated, followed by heat-mediated antigen retrieval (pH 6, Dako). After permeabilization and blocking, tumor sections were stained with pDRP1 Ser^616 antibody overnight, washed and incubated with Alexa 488 secondary antibody for one hour, mounted and observed on an LSM 880 with a 10×/0.45 NA objective (Carl Zeiss). Immunofluorescent confocal images were acquired for each treatment (magnification:100×).” left out

SBC3 cells [3] = test: LC-MS of nucleotides, nucleosides and nucleobases in cell pellets; format: cell-based, human; design: unit not given here
Experimental: These studies were performed by Creative Proteomics in their facility in Shirley, NY. Each sample was placed into 250 μL of 80% methanol. Tissue samples were weighed in 2-mL Eppendorf tubes, and 80% methanol was added at 10 μL per mg of raw tissue. The tissue and cell samples were then homogenized on a MM 400 mill mixer with the aid of two 4-mm metal beads at a shaking frequency of 30 Hz for 2 min and the homogenization step was repeated twice. The samples were placed at −20° C. for 1 h and then centrifuged at 21,000×g for 10 min. The clear supernatants were collected for LC-MS quantitation. Protein content was measured from protein pellets by Bradford protein assays and used to normalize metabolite concentrations from cell pellets. A stock solution contained standard substances of all the targeted nucleotides, nucleosides, and nucleobases were prepared at 200 nmol/mL for each in an internal standard solution of ^13C- and/or ^15N-labeling AMP, ATP, GMP, GTP, UMP, UTP, adenine and adenosine. This solution was serially diluted with the same solution to prepare 10-point calibration solutions in a concentration range of 0.0001 to 50 μM. 10 μL of the supernatant of each sample was mixed with 90 μL of the internal standard solution. 10 μL aliquots of the sample solutions and the standard solutions were injected into a C18 LC column (2.1*150 mm, 1.9 μm) to run UPLC-MRM/MS on a Waters Acquity UPLC system coupled to a Sciex QTRAP 6500 Plus mass spectrometer operated in the negative-ion mode for detection of nucleotides. The mobile phase was a triethylamine buffer (A) and acetonitrile/methanol (1:1) (B) for binary gradient elution (5% to 60% B in 25 min), at 0.25 mL/min and 55° C. For quantitation of nucleosides and nucleobases, 10-μL aliquots of the sample solutions and the standard solutions were injected onto a polar reversed-phase C18 column (2.1*100 mm, 1.6 μm) to run UPLC-MRM/MS on a Waters Acquity UPLC system coupled to a Sciex QTRAP 6500 Plus mass spectrometer operated in the positive-ion mode. The mobile phase was 0.1% formic acid-ammonium formate buffer (A) and methanol (B) for binary gradient elution (0% to 40% B in 15 min), at 0.25 mL/min and 30° C. Concentrations of the detected nucleotides, nucleosides or nucleobases in the UPLC-MRM/MS runs were calculated with internal-standard calibration by interpolating the constructed linear-regression curves of individual compounds, with the analyte-to-internal standard peak area ratios measured from the sample solutions.
The effect of treatment on the concentration of purines and pyrimidines for both cell lines and xenograft were modelled as concentration=Treatment1+Treatment2+Treatment1*Treatment2. For cell lines, Treatment 1-2 were […] and Teri, while for the xenografts—Lur and Leflu respectively. The significance of the effects was ascertained by p-values associated with the coefficients of the model (20). The p-values were FDR corrected to account for repeated testing. The coefficient for the interaction term (Treatment1*Treatment2) and its associated p-value correspond to the synergistic effect of the two treatments. Coefficients and p-values for the rest of the terms indicate significance of each treatment alone. Statistical analysis was conducted in R.

With `CC(=NNc1c(Cl)cc(Cl)cc1Cl)c1cc(Cl)ccc1O` [M1] as the compound, how does the “Mitochondrial elongation (Airyscan imaging)” value (SBC3 cells [1]) read?
The value was “moderately affected”.

What about the “effect on mitochondrial or nuclear areas” value (SBC3 cells [1]) of the same compound?
Its value is “did not affect”.

Which results are given for `COc1cc(-n2c(=S)[nH]c3ccccc3c2=O)c(Cl)cc1Cl` [MDIVI1]?
Mitochondrial elongation (Airyscan imaging) (SBC3 cells [1]): moderately affected; effect on mitochondrial or nuclear areas (SBC3 cells [1]): did not affect; Mitochondrial area (SBC5 cells): 419.9±13.26 μm^2

Which ORR (SCLC) does the source give for `CC[C@@]1(O)C(=O)OCc2c1cc1n(c2=O)Cc2cc3c(CN(C)C)c(O)ccc3nc2-1` [topotecan, Topotecan] here?
The ORR was 24%.

What about the “median PFS” value (SCLC) of the same compound?
Its value is 3.4 months.

With carboplatin as the compound, how does the IC50 (SBC3 cells [2]) read?
The IC50 was 4.12 µM.

What about the “pDRP1 Ser616 immunofluorescence in tumor sections” value (SBC3 xenograft; SBC3 xenograft FFPE tumors) of the same compound?
The value was “significant decrease”.

And the “reduction in tumor size/weight” value (SBC3 xenograft; SBC3 xenograft, day 40, vs control)?
The value was about 58%.

And the “average final tumor weight at end of study (day 40)” value (SBC3 xenograft; SBC3 xenograft, Carbo 50 mg/kg, Leflu 7.5 mg/kg, i.p. twice a week)?
The value was 0.75 ± 0.10 g.

What about the “final tumor weight (day 40)” value (SBC5 xenograft) of the same compound?
Its value is 0.64 ± 0.10 g.

What about the ATP concentration (SBC3 cells [3]) of the same compound?
The ATP concentration was 27.92±0.55.

What about the UTP concentration (SBC3 cells [3]) of the same compound?
The UTP concentration was 9.29±0.4.

What about the XMP concentration (SBC3 cells [3]) of the same compound?
Its XMP concentration is 0.35±0.18.

And the dATP concentration (SBC3 cells [3])?
The dATP concentration was 0.17±0.002.

And the dCTP concentration (SBC3 cells [3])?
Its dCTP concentration is 0.06±0.004.

What about the dm5UTP concentration (SBC3 cells [3]) of the same compound?
Its dm5UTP concentration is 0.44±0.001.

And the xanthosine concentration (SBC3 cells [3])?
Its xanthosine concentration is 0.094±0.045.
